According to patent publication US12590062B2, “PD-1/PD-L1 inhibitors” (Gilead Sciences, Inc., priority 2017, dated 2026):

Experiments:
[1] = target: T1, interaction between the recombinant extracellular domain (ECD) of PD-1 and native cell-bound PD-L1 (Homo sapiens, UniProt Q9NZQ7); assay: CHO/PD-L1 cell capture assay; format: cell-based; details: CHO cells overexpressing PD-L1, pre-incubated 1 hr with compound, captured on biotinylated Fc-PD-1 coated plates, 75 min at room temperature
T1 construct: expressed in transfected cells
T1 sequence (Q9NZQ7 19-290): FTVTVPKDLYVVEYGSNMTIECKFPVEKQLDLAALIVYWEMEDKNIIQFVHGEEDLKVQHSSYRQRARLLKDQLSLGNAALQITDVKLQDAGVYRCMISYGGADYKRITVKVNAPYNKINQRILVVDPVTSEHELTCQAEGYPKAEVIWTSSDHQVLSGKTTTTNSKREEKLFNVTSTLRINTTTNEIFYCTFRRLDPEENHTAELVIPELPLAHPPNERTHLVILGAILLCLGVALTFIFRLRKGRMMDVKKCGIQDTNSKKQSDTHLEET
Outline: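 EC50 values came from four-parameter fits of counts of Draq5-stained CHO-PD-L1 cells retained on plate-bound biotinylated Fc-PD-1 ECD, enumerated by high-content imaging. Cells in PBS pH 7.4 with EDTA and 2% BSA had 1 hr compound pre-incubation, then 75 min capture at room temperature.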

PD-1/PD-L1 interaction = target: T2, PD-1/PD-L1 interaction (Homo sapiens, UniProt Q9NZQ7); assay: PD-1/PD-L1 NFAT reporter co-culture assay; format: cell-based; details: Jurkat PD-1 NFAT-luciferase cells co-cultured with aAPC-PD-L1 CHO cells, 6 hrs at 37° C.; read-out: EC50 NFAT Luciferase
T2 construct: expressed in transfected cells; host or cells: CHO cells (aAPC-PD-L1) co-cultured with Jurkat cells overexpressing PD-1 and an NFAT-luciferase reporter
T2 sequence (Q9NZQ7 19-290): as above
Outline: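 Luminescence (ONE-Glo) after 6 h, 37 °C co-culture reports NFAT-luciferase in PD-1 Jurkat cells, which PD-1/PD-L1 engagement suppresses. Partner cells: CHO expressing anti-CD3 and PD-L1. EC50 from four-parameter dose-response fit.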

PD-L1 = target: T3, PD-L1 (Homo sapiens, UniProt Q9NZQ7); assay: PD-L1/PD-L1 dimerization biochemical protein-protein interaction assay (ALPHA); format: binding; details: compound-induced PD-L1 dimerization, head prints '1 nM' (0.5 nM His-tagged PD-L1 and 0.5 nM FLAG-tagged PD-L1), read-out: AC50 PDL1 Dimer Alpha 1 nM
T3 construct: determine if they can specifically dimerize the extracellular domains of PD-L1
T3 sequence (Q9NZQ7 19-238 limits assumed): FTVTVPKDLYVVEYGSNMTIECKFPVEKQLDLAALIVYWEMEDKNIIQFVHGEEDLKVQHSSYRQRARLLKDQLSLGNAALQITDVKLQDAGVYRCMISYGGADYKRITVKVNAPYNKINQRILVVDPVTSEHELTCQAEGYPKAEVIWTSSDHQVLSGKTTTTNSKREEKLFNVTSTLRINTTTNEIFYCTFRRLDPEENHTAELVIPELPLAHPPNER
T3 sequence (Q9NZQ7 19-238 limits assumed): as above
Outline: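 After 2 h at 25 °C with compound, His- and FLAG-tagged PD-L1 ECDs (each 0.5 nM final; 25 mM Hepes pH 7.4, 150 mM NaCl) were detected by sequential anti-His acceptor and anti-FLAG donor bead incubations. Dose-response curves fitted to four-parameter equation for AC50.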

PD-1/PD-L1 = PD-1/PD-L1 (Homo sapiens, UniProt Q9NZQ7); assay: PD-1/PD-L1 biochemical protein-protein interaction assay (ALPHA); format: binding; details: 0.3 nM His tagged PD-L1, 2.5 nM biotinylated Fc-PD-1, 60 minutes at 25° C., read-out: IC50 PD-L1-PD-1 Alpha IC50-mono PD-L1-fcP-D1
Sequence of PD-1/PD-L1 (Q9NZQ7 19-238 limits assumed): as above
Outline: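 IC50 values derive from four-parameter fits of ALPHA signal decrease. Assay: 0.3 nM His-tagged PD-L1 with 2.5 nM biotinylated Fc-PD-1, Hepes pH 7.4 with 0.005% Tween 20 and 0.01% BSA, 60 min at 25° C, then anti-His acceptor and streptavidin donor beads.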

Compound | EC50 [1] [nM] | EC50 (PD-1/PD-L1 interaction) [nM] | AC50 (PD-L1) [nM] | IC50 (PD-1/PD-L1) [nM]
COc1nc(OCc2cccc(-c3cccc(COc4nc(OC)c(C5=NCCN5)cc4Cl)c3C)c2C)c(Cl)cc1C1=NCCN1 [Example 30, 6,6′-(((2,2′-dimethyl-[1,1′-biphenyl]-3,3′-diyl)bis(methylene))bis(oxy))bis(5-chloro-3-(4,5-dihydro-1H-imidazol-2-yl)-2-methoxypyridine)] | 52.1 | ≥ 50000 | 369 | 
COc1nc(OCc2cccc(-c3cccc(COc4nc(OC)c(CN[C@](C)(CO)C(=O)O)cc4Cl)c3C)c2C)c(Cl)cc1CN[C@](C)(CO)C(=O)O [Example 43, (2R,2′R)-2,2′-((((((2,2′-dimethyl-[1,1′-biphenyl]-3,3′-diyl)bis(methylene))bis(oxy))bis(5-chloro-2-methoxypyridine-6,3-diyl))bis(methylene))bis(azanediyl))bis(3-hydroxy-2-methylpropanoic acid)] | 65.2 | 79 | ≥ 10000 | 
COc1nc(OCc2cccc(-c3cccc(COc4nc(OC)c(CN[C@@H](C)CC(=O)O)cc4Cl)c3C)c2C)c(Cl)cc1CN[C@@H](C)CC(=O)O [Example 74, (3S,3′S)-3,3′-((((((2,2′-dimethyl-[1,1′-biphenyl]-3,3′-diyl)bis(methylene))bis(oxy))bis(5-chloro-2-methoxypyridine-6,3-diyl))bis(methylene))bis(azanediyl))dibutyric acid] | 176 | 138 | ≥ 10000 | 
COc1nc(OCc2cccc(-c3cccc(COc4nc(OC)c(CN[C@H](C)C(=O)O)cc4Cl)c3C)c2C)c(Cl)cc1CN[C@H](C)C(=O)O [Example 90, (2R,2′R)-2,2′-((((((2,2′-dimethyl-[1,1′-biphenyl]-3,3′-diyl)bis(methylene))bis(oxy))bis(5-chloro-2-methoxypyridine-6,3-diyl))bis(methylene))bis(azanediyl))dipropionic acid] | 219 | 113 | ≥ 10000 | 
COc1nc(OCc2cccc(-c3cccc(COc4nc(OC)c(CNC5(C(=O)O)CC5)cc4Cl)c3C)c2C)c(Cl)cc1CNC1(C(=O)O)CC1 [Example 91, 1,1′-((((((2,2′-dimethyl-[1,1′-biphenyl]-3,3′-diyl)bis(methylene))bis(oxy))bis(5-chloro-2-methoxypyridine-6,3-diyl))bis(methylene))bis(azanediyl))bis(cyclopropane-1-carboxylicacid)] | 196 | 523 | ≥ 10000 | 
COc1nc(OCc2cccc(-c3cccc(COc4nc(OC)c(CNC[C@H](O)C(=O)O)cc4Cl)c3C)c2C)c(Cl)cc1CNC[C@H](O)C(=O)O [Example 166, (2S,2′S)-3,3′-((((((2,2′-dimethyl-[1,1′-biphenyl]-3,3′-diyl)bis(methylene))bis(oxy))bis(5-chloro-2-methoxypyridine-6,3-diyl))bis(methylene))bis(azanediyl))bis(2-hydroxypropanoic acid)] | 41.6 | 139 |  | 2
COc1nc(OCc2cccc(-c3cccc(COc4cc(OCc5cncc(C#N)c5)c(CNC[C@@H](O)CC(=O)O)cc4Cl)c3C)c2C)ccc1CNC[C@@H](O)CC(=O)O [Example 203, (S)-4-(((6-((3′-((4-((((S)-3-Carboxy-2-hydroxypropyl)amino)methyl)-2-chloro-5-((5-cyanopyridin-3-yl)methoxy)phenoxy)methyl)-2,2′-dimethyl-[1,1′-biphenyl]-3-yl)methoxy)-2-methoxypyridin-3-yl)methyl)amino)-3-hydroxybutanoic acid] | 317 | 696 |  | 1
Cc1c(COc2cc(OCc3cncc(C#N)c3)c(CNCCO)cc2Cl)cccc1-c1cccc2c1CCN2C(=O)c1ccc(CNCCO)c(OCc2cncc(C#N)c2)c1 [Example 205, 5-((4-Chloro-5-((3-(1-(3-((5-cyanopyridin-3-yl)methoxy)-4-(((2-hydroxyethyl)amino)methyl)benzoyl)indolin-4-yl)-2-methylbenzyl)oxy)-2-(((2-hydroxyethyl)amino)methyl)phenoxy)methyl)nicotinonitrile] | 394 | 1430 |  | 6.9
Cc1c(COc2cc(OCc3cncc(C#N)c3)c(CNC[C@@H](O)CC(=O)O)cc2Cl)cccc1-c1cccc2c1CCN2C(=O)c1ccc(CNC[C@@H](O)CC(=O)O)c(OCc2cncc(C#N)c2)c1 [Example 206, (S)-4-((4-(4-(3-((4-((((S)-3-Carboxy-2-hydroxypropyl)amino)methyl)-2-chloro-5-((5-cyanopyridin-3-yl)methoxy)phenoxy)methyl)-2-methylphenyl)indoline-1-carbonyl)-2-((5-cyanopyridin-3-yl)methoxy)benzyl)amino)-3-hydroxybutanoic acid] | 161 | 672 |  | 0.2
COc1nc(OCc2cccc(-c3cccc(COc4nc(OC)c(CNC[C@@H](O)CC(=O)O)cc4I)c3C)c2C)c(I)cc1CNC[C@@H](O)CC(=O)O [Example 241, (3S,3′S)-4,4′-((((((2,2′-dimethyl-[1,1′-biphenyl]-3,3′-diyl)bis(methylene))bis(oxy))bis(5-iodo-2-methoxypyridine-6,3-diyl))bis(methylene))bis(azanediyl))bis(3-hydroxybutanoic acid)] | 166 | 275 |  | 0.6
Cc1c(COc2ccc(CNC[C@@H](O)CC(=O)O)c(OCc3cncc(C#N)c3)n2)cccc1-c1cccc(COc2ccc(CNC[C@@H](O)CC(=O)O)c(OCc3cncc(C#N)c3)n2)c1C [Example 242, (3S,3′S)-4,4′-((((((2,2′-dimethyl-[1,1′-biphenyl]-3,3′-diyl)bis(methylene))bis(oxy))bis(2-((5-cyanopyridin-3-yl)methoxy)pyridine-6,3-diyl))bis(methylene))bis(azanediyl))bis(3-hydroxybutanoic acid)] | 129 | 288 |  | 0.2
COc1nc(OCc2cccc(-c3cccc(COc4nc(OC)c(CNC[C@@H](O)CC(=O)O)cc4C#N)c3C)c2C)c(C#N)cc1CNC[C@@H](O)CC(=O)O [Example 243, (3S,3′S)-4,4′-((((((2,2′-dimethyl-[1,1′-biphenyl]-3,3′-diyl)bis(methylene))bis(oxy))bis(5-cyano-2-methoxypyridine-6,3-diyl))bis(methylene))bis(azanediyl))bis(3-hydroxybutanoic acid)] | 90.6 | 393 |  | 0.2
COc1cc(OCc2cccc(-c3cccc(COc4cc(OC)c(CNC[C@@H](O)CC(=O)O)c(OCc5cncc(C#N)c5)c4)c3C)c2C)cc(OCc2cncc(C#N)c2)c1CNC[C@@H](O)CC(=O)O [Example 245, (3S,3′S)-4,4′-((((((2,2′-dimethyl-[1,1′-biphenyl]-3,3′-diyl)bis(methylene))bis(oxy))bis(2-((5-cyanopyridin-3-yl)methoxy)-6-methoxy-4,1-phenylene))bis(methylene))bis(azanediyl))bis(3-hydroxybutanoic acid)] | 308 | 3440 |  | 0.6
Cc1c(COc2ccc(CNC[C@@H](O)CC(=O)O)c(OCc3cncc(C#N)c3)c2)cccc1-c1cccc(COc2ccc(CNC[C@@H](O)CC(=O)O)c(OCc3cncc(C#N)c3)c2)c1C [Example 248, (3S,3′S)-4,4′-((((((2,2′-dimethyl-[1,1′-biphenyl]-3,3′-diyl)bis(methylene))bis(oxy))bis(2-((5-cyanopyridin-3-yl)methoxy)-4,1-phenylene))bis(methylene))bis(azanediyl))bis(3-hydroxybutanoic acid)] | 200 | 540 |  | 0.2
Cc1c(COc2cc(OCC3CCOC3)c(CNC[C@@H](O)CC(=O)O)cc2Cl)cccc1-c1cccc(COc2cc(OCC3CCOC3)c(CNC[C@@H](O)CC(=O)O)cc2Cl)c1C (stereo partly drawn) [Example 280, (3S,3′S)-4,4′-((((((2,2′-dimethyl-[1,1′-biphenyl]-3,3′-diyl)bis(methylene))bis(oxy))bis(5-chloro-2-((tetrahydrofuran-3-yl)methoxy)-4,1-phenylene))bis(methylene))bis(azanediyl))bis(3-hydroxybutanoic acid)] | 208 | 592 |  | 0.3
